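Results reflect a 48-hour exposure of cells in 96-well plates to compound at five concentrations. GI50: concentration for 50% inhibition of growth.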 Activity calls are given as the source filed them. Cut-off read from the data, not from the text of the source: active = GI50 up to about 1.1 µM and inactive = higher.
Assays:
Assay in all cases: NCI-60 cell line screen, 48 h
M14 = system: M14
BT-549 = system: BT-549
MCF7 = system: MCF7
K562 = system: K562
OVCAR-3 = system: OVCAR-3
SN12C = system: SN12C
SW-620 = system: SW-620
U-251 = system: U-251
SF-539 = system: SF-539
IGROV-1 = system: IGROV-1
MDA-N = system: MDA-N
LOX IMVI = system: LOX IMVI
OVCAR-4 = system: OVCAR-4
RPMI-8226 = system: RPMI-8226
SK-MEL-2 = system: SK-MEL-2
EKVX = system: EKVX
SNB-75 = system: SNB-75
CAKI-1 = system: CAKI-1
Malme-3M = system: Malme-3M
Hs-578T = system: Hs-578T

Row | SMILES | GI50 (M14) | GI50 (BT-549) | GI50 (MCF7) | GI50 (K562) | GI50 (OVCAR-3) | GI50 (SN12C) | GI50 (SW-620) | GI50 (U-251) | GI50 (SF-539) | GI50 (IGROV-1) | GI50 (MDA-N) | GI50 (LOX IMVI) | GI50 (OVCAR-4) | GI50 (RPMI-8226) | GI50 (SK-MEL-2) | GI50 (EKVX) | GI50 (SNB-75) | GI50 (CAKI-1) | GI50 (Malme-3M) | GI50 (Hs-578T)
1 | CCOC(=O)N/N=C(\Cc1ccc([N+](=O)[O-])cc1)OCC | > 100 µM (inactive) | > 100 µM (inactive) | > 100 µM (inactive) | > 100 µM (inactive) | > 100 µM (inactive) | > 100 µM (inactive) | > 100 µM (inactive) | > 100 µM (inactive) | > 100 µM (inactive) | > 100 µM (inactive) | > 100 µM (inactive) | > 100 µM (inactive) | > 100 µM (inactive) | > 100 µM (inactive) | > 100 µM (inactive) | > 100 µM (inactive) | > 100 µM (inactive) |  |  | 
2 | O=c1[nH]c(=O)n(COCc2ccccc2)c2ccc(Br)cc12 | > 100 µM (inactive) |  | > 100 µM (inactive) | > 100 µM (inactive) | 85.3 µM (inactive) | > 100 µM (inactive) | > 100 µM (inactive) | > 100 µM (inactive) | > 100 µM (inactive) | > 100 µM (inactive) | > 100 µM (inactive) | > 100 µM (inactive) | 60.8 µM (inactive) |  | > 100 µM (inactive) | 96.8 µM (inactive) | 43.4 µM (inactive) | > 100 µM (inactive) |  | 
3 | O=C1C(C(O)(C(F)(F)F)C(F)(F)F)CCC1C(O)(C(F)(F)F)C(F)(F)F (stereo not given) | 8.71 µM (inactive) |  | 0.174 µM (active) | 3.64 µM (inactive) | 0.918 µM (active) | 0.684 µM (active) | 5.89 µM (inactive) | 13.5 µM (inactive) | 6.82 µM (inactive) | 5.48 µM (inactive) | > 36.7 µM (inactive) | 0.594 µM (active) | 1.18 µM (inactive) | 0.142 µM (active) | 0.522 µM (active) | 8.13 µM (inactive) | 0.234 µM (active) | 0.341 µM (active) | 1.06 µM (active) | 1.37 µM (inactive)
4 | C[Si](C)(C)c1ccc(-c2c3ccc(-c4cc(Br)cc(Br)c4)nc3nc3nc(-c4cc(Br)cc(Br)c4)ccc23)cc1 | > 100 µM (inactive) | > 100 µM (inactive) | > 100 µM (inactive) |  | > 100 µM (inactive) | > 100 µM (inactive) |  | > 100 µM (inactive) |  |  | > 100 µM (inactive) |  | > 100 µM (inactive) | > 100 µM (inactive) | > 100 µM (inactive) | > 100 µM (inactive) | > 100 µM (inactive) | > 100 µM (inactive) | > 100 µM (inactive) | 
5 | CC(=O)O[C@H]1C[C@]2(O)[C@@H]3CC[C@@H]4C[C@@H](O)CC[C@]4(C)[C@H]3CC[C@]2(C)[C@H]1C1=CC(=O)OC1 | 0.172 µM (active) | 0.0284 µM (active) |  | 0.103 µM (active) | 0.0389 µM (active) | 0.037 µM (active) | 0.125 µM (active) | 0.128 µM (active) | 0.0299 µM (active) | 0.103 µM (active) | 0.0867 µM (active) | 0.0585 µM (active) | 0.0362 µM (active) | 0.0982 µM (active) | 0.218 µM (active) | 0.0458 µM (active) | 0.153 µM (active) | 0.034 µM (active) | 0.036 µM (active) | 0.0675 µM (active)
6 | CC12CCCC(O)C1CCC1=CC3(CCC12)SCCS3 (stereo not given) | > 10 µM (inactive) | > 10 µM (inactive) | > 10 µM (inactive) | > 10 µM (inactive) | > 10 µM (inactive) | > 10 µM (inactive) | > 10 µM (inactive) | > 10 µM (inactive) |  | > 10 µM (inactive) | > 10 µM (inactive) | > 10 µM (inactive) | > 10 µM (inactive) | > 10 µM (inactive) |  |  | > 10 µM (inactive) | > 10 µM (inactive) | > 10 µM (inactive) | 
7 | COC(=O)C1(CCCCl)CCCN1C(=O)OC(C)(C)C (stereo not given) |  | > 100 µM (inactive) | > 100 µM (inactive) | 36.7 µM (inactive) | > 100 µM (inactive) | > 100 µM (inactive) | > 100 µM (inactive) | > 100 µM (inactive) |  | > 100 µM (inactive) | > 100 µM (inactive) | > 100 µM (inactive) | > 100 µM (inactive) |  | > 100 µM (inactive) | > 100 µM (inactive) | > 100 µM (inactive) | > 100 µM (inactive) |  | 
8 | O=C(NC/C(Cl)=C/Cl)Nc1c2ccccc2nc2ccccc12 | 84.5 µM (inactive) |  | > 100 µM (inactive) |  | 44.5 µM (inactive) | 69.7 µM (inactive) | > 100 µM (inactive) | 70.8 µM (inactive) | 25.1 µM (inactive) | 35.5 µM (inactive) | > 100 µM (inactive) | 61.2 µM (inactive) | 35.4 µM (inactive) | 53.3 µM (inactive) | > 100 µM (inactive) | > 100 µM (inactive) | > 100 µM (inactive) | > 100 µM (inactive) | > 100 µM (inactive) | > 100 µM (inactive)
9 | Cn1c(=O)c2c(nc3n2CCC(=O)N3CCCCl)n(C)c1=O | > 100 µM (inactive) | > 100 µM (inactive) |  | > 100 µM (inactive) | > 100 µM (inactive) | > 100 µM (inactive) | > 100 µM (inactive) | > 100 µM (inactive) |  | > 100 µM (inactive) | > 100 µM (inactive) | > 100 µM (inactive) | > 100 µM (inactive) | > 100 µM (inactive) | > 100 µM (inactive) | > 100 µM (inactive) | > 100 µM (inactive) |  |  | > 100 µM (inactive)
10 | CNC(=O)OCC1=C(COC(=O)NC)C(C)N(c2ccccc2)C1 (stereo not given) | 30.1 µM (inactive) | 50.9 µM (inactive) | 20.8 µM (inactive) | 26.7 µM (inactive) | 30.4 µM (inactive) | 72.9 µM (inactive) | 46.1 µM (inactive) | 31.8 µM (inactive) | 23.3 µM (inactive) | 26.2 µM (inactive) | 33.8 µM (inactive) | 32.7 µM (inactive) | 37.8 µM (inactive) | 24.6 µM (inactive) | 22.6 µM (inactive) | 46.1 µM (inactive) | 39.4 µM (inactive) |  | 33.9 µM (inactive) | 43.4 µM (inactive)
11 | N#CC(=N)c1ncn(CCO)c1NC(=O)C(F)(F)F | > 100 µM (inactive) |  |  | > 100 µM (inactive) | > 100 µM (inactive) | > 100 µM (inactive) | > 100 µM (inactive) | > 100 µM (inactive) | > 100 µM (inactive) | > 100 µM (inactive) | > 100 µM (inactive) | > 100 µM (inactive) | > 100 µM (inactive) | > 100 µM (inactive) | > 100 µM (inactive) | > 100 µM (inactive) | > 100 µM (inactive) | > 100 µM (inactive) | > 100 µM (inactive) | > 100 µM (inactive)
12 | COc1ccc(C2=C(Cl)C(=O)O/C2=C\c2ccc(OC)c(Br)c2)cc1Cl | 70.8 µM (inactive) |  | 14.6 µM (inactive) | 35.2 µM (inactive) | 23 µM (inactive) |  | > 100 µM (inactive) | 14.1 µM (inactive) | 16.1 µM (inactive) | 33.7 µM (inactive) | > 100 µM (inactive) | 58.9 µM (inactive) | > 100 µM (inactive) | > 100 µM (inactive) | 25.2 µM (inactive) | 31.6 µM (inactive) | > 100 µM (inactive) | 36.1 µM (inactive) | 54 µM (inactive) | 27.4 µM (inactive)
13 | C1CSCCSS[C@@H]2CCCCC2SC1 (stereo not given in full) | > 100 µM (inactive) | > 100 µM (inactive) | > 100 µM (inactive) | > 100 µM (inactive) | > 100 µM (inactive) | > 100 µM (inactive) | > 100 µM (inactive) | > 100 µM (inactive) | > 100 µM (inactive) | > 100 µM (inactive) | > 100 µM (inactive) | > 100 µM (inactive) | > 100 µM (inactive) |  |  | > 100 µM (inactive) | > 100 µM (inactive) |  |  | 
14 | COC(=O)c1c(C)cccc1C1CN=NC12Cc1ccc(C)cc1C2=O (stereo not given) | 38.8 µM (inactive) |  | 37.2 µM (inactive) | 29.8 µM (inactive) | 38.6 µM (inactive) | 48.4 µM (inactive) | 41 µM (inactive) | 41.9 µM (inactive) | 47 µM (inactive) | 52 µM (inactive) | 41.4 µM (inactive) | 28.6 µM (inactive) | 48.8 µM (inactive) | 25.6 µM (inactive) |  | 26.7 µM (inactive) | 57.5 µM (inactive) | > 100 µM (inactive) | 33.2 µM (inactive) | 39.4 µM (inactive)
15 | CCCc1cc(O)c2c(C)c3[nH]c4ccc(Cl)cc4c3c(C)c2n1 | 3.1 µM (inactive) |  | 1.83 µM (inactive) |  |  | 2.36 µM (inactive) | 1.63 µM (inactive) | 1.69 µM (inactive) | 1.92 µM (inactive) | 2.13 µM (inactive) | 1.9 µM (inactive) | 1.82 µM (inactive) | 1.86 µM (inactive) |  | 3.57 µM (inactive) | 2.44 µM (inactive) | 2.9 µM (inactive) | 2 µM (inactive) | 10.7 µM (inactive) | 9.57 µM (inactive)
16 | C#CCN(N=O)C(=O)NCCCCC(NC(=O)OCc1ccccc1)C(=O)OCc1ccccc1 (stereo not given) | 27 µM (inactive) |  |  | 23.3 µM (inactive) | 25.5 µM (inactive) | 37.8 µM (inactive) | 17.4 µM (inactive) | 48.9 µM (inactive) | 16.3 µM (inactive) | 76 µM (inactive) |  | 14.5 µM (inactive) | > 100 µM (inactive) | 31.9 µM (inactive) | 40 µM (inactive) | > 100 µM (inactive) | 46.3 µM (inactive) | 24 µM (inactive) | 29.9 µM (inactive) | 

Source: ChEMBL document CHEMBL1201862, “PubChem BioAssay data set” (2004)
